In patent US9198433B2, “Substituted benzene fungicides” (E I DU PONT DE NEMOURS AND COMPANY, priority 2007, dated 2015):
Marks after values point to notes of the source that are not given here.

Key:
Format in all cases: in vivo
[1] = system: Alternaria solani; assay: Test H: tomato early blight, preventive spray on tomato seedlings, disease rating
Outline: (§1)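 Tomato seedlings sprayed to run-off, as a preventive treatment, with compound suspended in acetone/water (50/50) containing 250 ppm Trem 014 surfactant; 200 ppm equals 500 g/ha. Disease then rated. Values are at 200 ppm unless marked * (40 ppm) or ** (50 ppm).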

[2] = system: Puccinia recondita f. sp. tritici; assay: Test B: wheat leaf rust, preventive spray on wheat seedlings, disease rating
Outline: (§2)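 Compounds in acetone/water (50/50) with 250 ppm Trem 014 surfactant, sprayed to run-off on wheat seedlings as a preventive treatment before disease rating. Tested at 200 ppm (equivalent to 500 g/ha) unless marked for 40 ppm or 50 ppm.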

[3] = system: Septoria nodorum; assay: Test C: wheat glume blotch, preventive spray on wheat seedlings, disease rating
Outline: as §2

[4] = system: Botrytis cinerea; assay: Test F: tomato Botrytis, preventive spray on tomato seedlings, disease rating; settings: 200 ppm
Outline: as §1

[5] = system: Septoria tritici; assay: Test D: wheat leaf blotch, preventive spray on wheat seedlings, disease rating
Outline: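 Wheat seedlings sprayed to run-off with compound in acetone/water containing 250 ppm Trem 014 (200 ppm ≈ 500 g/ha; some results at 40 or 50 ppm), inoculated next day with Septoria tritici spores. Held 48 h saturated at 24 °C, then 19 days at 20 °C before disease rating.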

[6] = system: Erysiphe graminis f. sp. tritici; assay: Test A: wheat powdery mildew, preventive spray on wheat seedlings, disease rating
Outline: as §2

[7] = 200 ppm, 100 = 100% disease control, 0 = no control relative to controls
[8] = 100 = 100% disease control, 0 = no control relative to controls
[9] = 40 ppm (*), 100 = 100% disease control, 0 = no control relative to controls

Row | SMILES | Percentage Disease Control, Test H [1, 7] [%] | Percentage Disease Control, Test B [2, 7] [%] | Percentage Disease Control, Test C [3, 7] [%] | Percentage Disease Control, Test F [4, 8] [%] | Percentage Disease Control, Test D [5, 9] | Percentage Disease Control, Test A [6, 7] [%] | Percentage Disease Control, Test D [5, 7] [%] | other results
1 | COC(=O)NCc1cc(-c2cnn(Cc3ccccc3)c2)ccc1Cl [Cmpd 128] | 0 | 98 | 82 | 0 | 96* % | 29 |  | 
2 | COC(=O)NCc1cc(-c2cnn(Cc3ccccc3Cl)c2)ccc1Cl [Cmpd 129] | 0 | 98 | 90 | 0 | 92* % | 94 |  | 
3 | COC(=O)NCc1cc(-c2ccnc(Cl)n2)ccc1Cl [Cmpd 130] | 0 | 67 | 92 | 0 |  | 80 | 96 | 
4 | COC(=O)NCc1cc(-c2ccnc(-c3csc(C)n3)n2)ccc1Cl [Cmpd 131] | 0 | 0 | 0 | 0 |  | 0 | 13 | 
5 | COC(=O)NCc1cc(-c2ccnc(-c3ccc(C)cc3)n2)ccc1Cl [Cmpd 132] | 0 |  |  | 0 | 100* % | 80 |  | Percentage Disease Control, Test B [2, 9]: 95* %; Percentage Disease Control, Test C [3, 9]: 98* %
6 | COC(=O)NCc1cc(-c2ccnc(-c3cccc(C)c3)n2)ccc1Cl [Cmpd 133] | 0 | 93 | 93 | 0 | 92* % | 94 |  | 
7 | COC(=O)NCc1cc(-c2ccnc(-c3ccccc3)n2)ccc1Cl [Cmpd 134] | 0 | 84 |  | 0 |  | 0 | 87 | Percentage Disease Control, Test C [3, 9]: 96* %
8 | COC(=O)NCc1cc(-c2ccnc(C3CC3)n2)ccc1Cl [Cmpd 137] | 15 | 99 |  | 0 | 97* % | 95 |  | Percentage Disease Control, Test C [3, 9]: 90* %
9 | COC(=O)NCc1cc(-c2ccnc(C(F)(F)F)n2)ccc1Cl [Cmpd 138] | 0 | 48 | 92 | 0 |  | 56 | 77 | 
10 | COC(=O)NCc1cc(-c2ccnc(OCc3ccccc3)n2)ccc1Cl [Cmpd 139] | 26 |  |  | 0 | 92* % | 87 |  | Percentage Disease Control, Test B [2, 9]: 100* %; Percentage Disease Control, Test C [3, 9]: 99* %
11 | COC(=O)NCc1cc(-c2ccnn2-c2ccccc2)ccc1Cl [Cmpd 140] | 0 | 32 | 0 | 0 |  | 0 | 96 | 
12 | COC(=O)NCc1cc(-c2cc(C(F)(F)F)nn2C)ccc1Cl [Cmpd 141] | 0 | 89 | 82 | 0 |  | 96 | 98 | 
13 | COC(=O)NCc1cc(-c2cc(C(F)(F)F)nn2CCC(C)(C)C)ccc1Cl [Cmpd 142] | 16 | 55 | 0 | 0 |  | 85 | 92 | 
14 | CCCn1nc(C(F)(F)F)cc1-c1ccc(Cl)c(CNC(=O)OC)c1 [Cmpd 144] | 0 | 19 | 0 | 0 |  | 97 | 95 | 
15 | COC(=O)NCc1cc(-c2c[nH]nn2)ccc1Cl [Cmpd 145] | 15 | 0 | 0 | 0 |  | 0 | 30 | 
16 | COC(=O)NCc1cc(-c2cn(-c3ccc(Cl)cc3)nn2)ccc1Cl [Cmpd 148] | 0 |  | 90 | 46 | 98* % | 85 |  | Percentage Disease Control, Test B [2, 9]: 90* %
17 | COC(=O)NCc1cc(-c2cn(Cc3ccc(C)cc3)nn2)ccc1Cl [Cmpd 149] | 0 | 99 | 100 | 0 |  | 0 | 99 | 
18 | COC(=O)NCc1cc(-c2ccn(-c3ccc(C(C)=O)cc3)n2)ccc1Cl [Cmpd 150] | 92 | 98 | 100 | 0 |  | 71 | 99 | 
19 | COC(=O)NCc1cc(C(C)=NOC[Si](C)(C)c2ccccc2)ccc1Cl [Compound 15] |  |  |  |  |  |  |  | Percentage Disease Control, Test H ([1]; 200 ppm): 33%; Percentage Disease Control, Test B ([2]; 40 ppm (*)): 100* %; Percentage Disease Control, Test C ([3]; 40 ppm (*)): 100* %; Percentage Disease Control, Test F [4]: 0%; Percentage Disease Control, Test D ([5]; 40 ppm (*)): 100* %; Percentage Disease Control, Test A ([6]; 40 ppm (*)): 100* %
20 | COC(=O)NCc1cc(C(C)=NOC[Si](C)(C)c2ccc(F)cc2)ccc1Cl [Compound 16] |  |  |  |  |  |  |  | Percentage Disease Control, Test H ([1]; 40 ppm (*)): 95* %; Percentage Disease Control, Test B ([2]; 40 ppm (*)): 100* %; Percentage Disease Control, Test C ([3]; 40 ppm (*)): 100* %; Percentage Disease Control, Test F [4]: 67%; Percentage Disease Control, Test D ([5]; 40 ppm (*)): 100* %; Percentage Disease Control, Test A ([6]; 40 ppm (*)): 99* %
21 | COC(=O)NCc1cc(C(C)=NOC[Si](C)(C)Cc2ccccc2)ccc1Cl [Compound 17] |  |  |  |  |  |  |  | Percentage Disease Control, Test H ([1]; 200 ppm): 38%; Percentage Disease Control, Test B ([2]; 40 ppm (*)): 99* %; Percentage Disease Control, Test C ([3]; 200 ppm): 100%; Percentage Disease Control, Test F [4]: 0%; Percentage Disease Control, Test D ([5]; 40 ppm (*)): 100* %; Percentage Disease Control, Test A ([6]; 200 ppm): 67%
22 | COC(=O)NCc1cc(-c2cnn(Cc3ccc(C)cc3)n2)ccc1Cl [Compound 146] | 22 | 93 | 99 | 0 |  | 52 | 93 | 
23 | COC(=O)NCc1cc(-c2cnn(-c3ccc(Cl)cc3)n2)ccc1Cl [Compound 147] | 15 |  |  | 61 | 100* % |  |  | Percentage Disease Control, Test B [2, 9]: 99* %; Percentage Disease Control, Test C [3, 9]: 99* %; Percentage Disease Control, Test A [6, 9]: 100* %
